Tests used:
Assay in all cases: in vitro antibacterial evaluation, MIC by broth dilution
Format in all cases: cell-based
[1] = tested on: Escherichia coli
In short: (§1)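 Following National Committee for Clinical Laboratory Standards recommendations (M7-A2), susceptibility was measured by dilution in Muller-Hinton II […]. Bacteria were seeded at 5×10^5 CFU/mL against compound concentrations from 64 down to 0.06 μg/mL.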

[2] = tested on: Staphylococcus sp.; settings: broth dilution, 18 hours at 35° C.; for MIC Staphylococcus aureus (GC 1131): strain GC 1131
In short: as §1

[3] = tested on: Enterococcus sp.; settings: broth dilution, 18 hours at 35° C.; for MIC Enterococcus faecalis (ATCC 29212): strain ATCC 29212; for MIC Enterococcus faecalis (GC 2242): strain GC 2242; for MIC Enterococcus faecium (GC 2243): strain GC 2243; for MIC Enterococcus faecalis (GC 2691): strain GC 2691; for MIC Enterococcus faecalis (GC 3059): strain GC 3059; for MIC Enterococcus faecalis (GC 4552): strain GC 4552; for MIC Enterococcus faecalis (GC 4553): strain GC 4553; for MIC Enterococcus faecalis (GC 4554): strain GC 4554; for MIC Enterococcus faecium (GC 4556): strain GC 4556; for MIC Enterococcus faecium (GC 4557): strain GC 4557; for MIC Enterococcus avium (GC 4558): strain GC 4558; for MIC Enterococcus faecalis (GC 6189): strain GC 6189
In short: as §1

[4] = tested on: Streptococcus sp.; settings: broth dilution, 18 hours at 35° C.; for MIC Streptococcus pneumoniae (ATCC 6301): strain ATCC 6301; for MIC Streptococcus pneumoniae (GC 1894): strain GC 1894; for MIC Streptococcus pyogenes (GC 4563): strain GC 4563; for MIC Streptococcus agalactiae (GC 4564): strain GC 4564; for MIC Streptococcus pneumoniae (GC 4565): strain GC 4565
In short: as §1

CSc1ccc(C2OCC3OC(OC4C(CO)OC(Oc5ccc(CC6NC(=O)C(C(C)c7ccccc7)NC(=O)CNC(=O)C(CO)NC(=O)C(C(O)C7CNC(=N)N7C7OC(CO)C(O)C(O)C7O)NC(=O)C(C(O)C7CNC(=N)N7)NC6=O)cc5)C(O)C4O)C(O)C(O)C3O2)cc1[N+](=O)[O-] (stereo not shown) [Example 168]
64 µg/mL: MIC Escherichia coli (ATCC 25922) ([1]; strain ATCC 25922, 18 hours at 35° C.)
1 µg/mL: MIC Staphylococcus aureus (GC 1131) ([2]; inoculum 5×10^5 CFU/mL) | MIC Staphylococcus aureus (ATCC 29213) ([2]; strain ATCC 29213) | MIC Staphylococcus aureus (GC 1131) [2] | MIC Staphylococcus aureus (GC 3051) ([2]; strain GC 3051) | MIC Staphylococcus aureus (GC 3053) ([2]; strain GC 3053) | MIC Staphylococcus aureus (GC 4541) ([2]; strain GC 4541) | MIC Staphylococcus aureus (GC 4542) ([2]; strain GC 4542) | MIC Staphylococcus aureus-SMITH (GC 4543) ([2]; strain GC 4543) | MIC Staphylococcus aureus (GC 4545) ([2]; strain GC 4545) | MIC Coagulase Negative Staphylococcus (GC 4551) ([2]; strain GC 4551) | MIC Enterococcus faecium (GC 4557) ([3]; inoculum 5×10^5 CFU/mL) | MIC Enterococcus faecium (GC 4557) [3]
<0.12 µg/mL: MIC Streptococcus pneumoniae (ATCC 6301) ([4]; inoculum 5×10^5 CFU/mL) | MIC Streptococcus pneumoniae (GC 1894) ([4]; inoculum 5×10^5 CFU/mL) | MIC Streptococcus agalactiae (GC 4564) ([4]; inoculum 5×10^5 CFU/mL) | MIC Streptococcus pneumoniae (GC 4565) ([4]; inoculum 5×10^5 CFU/mL) | MIC Streptococcus pneumoniae (ATCC 6301) [4] | MIC Streptococcus pneumoniae (GC 1894) [4] | MIC Streptococcus agalactiae (GC 4564) [4] | MIC Streptococcus pneumoniae (GC 4565) [4]
0.5 µg/mL: MIC Escherichia coli (GC 4560) ([1]; strain GC 4560, 18 hours at 35° C.) | MIC Staphylococcus haemolyticus (GC 4546) ([2]; strain GC 4546) | MIC Coagulase Negative Staphylococcus (GC 4548) ([2]; strain GC 4548) | MIC Coagulase Negative Staphylococcus (GC 4549) ([2]; strain GC 4549) | MIC Streptococcus pyogenes (GC 4563) ([4]; inoculum 5×10^5 CFU/mL) | MIC Streptococcus pyogenes (GC 4563) [4]
16 µg/mL: MIC Escherichia coli (GC 4559) ([1]; strain GC 4559, 18 hours at 35° C.)
2 µg/mL: MIC Staphylococcus aureus (GC 4544) ([2]; strain GC 4544) | MIC Coagulase Negative Staphylococcus (GC 4547) ([2]; strain GC 4547) | MIC Enterococcus faecalis (ATCC 29212) ([3]; inoculum 5×10^5 CFU/mL) | MIC Enterococcus faecalis (GC 2242) ([3]; inoculum 5×10^5 CFU/mL) | MIC Enterococcus faecium (GC 2243) ([3]; inoculum 5×10^5 CFU/mL) | MIC Enterococcus faecalis (GC 2691) ([3]; inoculum 5×10^5 CFU/mL) | MIC Enterococcus faecalis (GC 3059) ([3]; inoculum 5×10^5 CFU/mL) | MIC Enterococcus faecalis (GC 4552) ([3]; inoculum 5×10^5 CFU/mL) | MIC Enterococcus faecalis (GC 4553) ([3]; inoculum 5×10^5 CFU/mL) | MIC Enterococcus faecalis (GC 4554) ([3]; inoculum 5×10^5 CFU/mL) | MIC Enterococcus faecium (GC 4556) ([3]; inoculum 5×10^5 CFU/mL) | MIC Enterococcus avium (GC 4558) ([3]; inoculum 5×10^5 CFU/mL) | MIC Enterococcus faecalis (GC 6189) ([3]; inoculum 5×10^5 CFU/mL) | MIC Enterococcus faecalis (ATCC 29212) [3] | MIC Enterococcus faecalis (GC 2242) [3] | MIC Enterococcus faecium (GC 2243) [3] | MIC Enterococcus faecalis (GC 2691) [3] | MIC Enterococcus faecalis (GC 3059) [3] | MIC Enterococcus faecalis (GC 4552) [3] | MIC Enterococcus faecalis (GC 4553) [3] | MIC Enterococcus faecalis (GC 4554) [3] | MIC Enterococcus faecium (GC 4556) [3] | MIC Enterococcus avium (GC 4558) [3] | MIC Enterococcus faecalis (GC 6189) [3]

— US6914045B2, “Glycopeptide antibiotics” (Wyeth Holdings Corporation, priority 2001, dated 2005)
